Data: patent US9808461B2, “Protection of renal tissues from ischemia through inhibition of the proliferative kinases CDK4 and CDK6” (The University of North Carolina at Chapel Hill, priority 2010, dated 2017)
Entries after “also recorded” stand apart in the source; their conditions may differ.

Tests used:
[1] = test system: primary human renal proximal tubule epithelial cells; test: Cell cycle analysis (propidium iodide staining, flow cytometry); format: cell-based; settings: 0, 10 nM, 30 nM, 100 nM, 300 nM or 1 μM for 16 hours
Method: Representative histograms of cell cycle analysis of primary human renal proximal tubule epithelial cells treated with varying concentrations (0 nM, 10 nM, 30 nM, 100 nM, 300 nM, or 1 μM) of 6-acetyl-8-cyclopentyl-5-methyl-2-(5-piperazin-1-yl-pyridin-2-ylamino)-8H-pyrido-[2,3-d]pyrimidin-7-one (PD0332991) for 16 hours. Cells were harvested, fixed, stained, and analyzed by flow cytometry. Data was fitted using Mod-Fit™ software from Verity (Verity Software House, Topsham, Me., United States of America). […] Cell cycle analysis of primary human renal proximal tubule epithelial cells treated with varying concentrations (0 nM, 10 nM, 30 nM, 100 nM, 300 nM, or 1 μM) of 6-acetyl-8-cyclopentyl-5-methyl-2-(5-piperazin-1-yl-pyridin-2-ylamino)-8H-pyrido-[2,3-d]pyrimidin-7-one (PD0332991) for 16 hours. Cells were harvested, fixed, stained, and analyzed by flow cytometry. Data was fitted using Mod-Fit™ software from Verity (Verity Software House, Topsham, Me., United States of America). […] Samples were processed and the DNA was stained with propidium iodide (PI) solution and analyzed by flow cytometry. FCS files from flow cytometer were further analyzed using cell cycle analysis software ModFit™ from Verity (Verity Software House, Topsham, Me., United States of America), where cell cycle fractions were calculated as a percentage of the whole population.

[2] = test system: primary human renal proximal tubule epithelial cells; test: Cell proliferation, CellTiter-Glo; format: cell-based; settings: 10 nM to 3 μM, 72 hours post treatment
Method: Cells were treated with varying concentrations (0 nM, 10 nM, 30 nM, 100 nM, 300 nM, or 1 μM) of 6-acetyl-8-cyclopentyl-5-methyl-2-(5-piperazin-1-yl-pyridin-2-ylamino)-8H-pyrido-[2,3-d]pyrimidin-7-one (PD0332991) for 72 hours. Following incubation, cell proliferation was quantified using CellTiter-Glo® (Promega, Madison, Wis., United States of America). Data represent the mean of four replicates (relative light units, RLU)+/−standard deviation. Inhibition of CDK4/6 blocks the proliferation of normal human primary renal proximal tubule epithelial cells. These cells were seeded at an appropriate density in 96 well plates and incubated for 24 hours at 37° C. in a humidified incubator at 5% CO2. Cells were then exposed to a potent and selective CDK4/6 inhibitor, in this case PD0332991, across a broad dose range 24 hours later. The dose range explored is 0, 10 nM, 30 nM, 100 nM, 300 nM, 1 μM or 3 μM PD0332991. Seventy-two hours post exposure, the CDK4/6 inhibited cells were treated with CellTiter-Glo® (Promega, Madison, Wis., United States of America) using manufacturer's specifications. The plate was read in luminometer at 1 second/well. Results were placed in Microsoft Excel and analyzed.

renal epithelial cells = test: BrdU incorporation into renal epithelial cells after ischemia reperfusion injury; format: in vivo, mice
Method: FIG. 3A is a schematic diagram showing a dosing schedule for studies of 5-bromo-2-deoxyuridine (BrdU) incorporation into epithelial cells following ischemic reperfusion injury after a single dosing of a CDK4/6 inhibitor. Mice were treated with 6-acetyl-8-cyclopentyl-5-methyl-2-(5-piperazin-1-yl-pyridin-2-ylamino)-8H-pyrido-[2,3-d]pyrimidin-7-one (PD0332991; 150 mg/kg) or vehicle (sodium lactate buffer) by oral gavage one hour before ischemic reperfusion injury. BrdU (100 mg/kg) was administered via i.p. injection 21 hours after injury. Mice were sacrificed 3 hours after the BrdU injection, and BrdU incorporation into the renal epithelial cells was quantified. […] Three hours following the second injection of BrdU, the mice were sacrificed and BrdU incorporation into the renal epithelial cells was quantified. […] Kidney cell proliferation following ischemia reperfusion injury (IRI) was monitored (based on BrdU incorporation in renal epithelial cells) following a one time, pre-IRI PD0332991 or vehicle (sodium lactate buffer) dosing as shown in FIG. 3A and following a two time (once pre-IRI and once post-IRI) PD0332991 or vehicle dosing as shown in FIG. 3B. […] BrdU positive (BrdU(+)) cells were quantified visually by counting the number of BrdU(+) cells in a field of kidney epithelial cells under magnification. […]

[3] = Serum creatinine after bilateral ischemia reperfusion injury; format: in vivo, mice; settings: 150 mg/kg oral gavage 1 hour prior to bilateral IRI; N=9; vehicle group 2.27
Method: PD0332991 was dissolved in 50 mM sodium lactate buffer (pH 4.0) to a final concentration of 15 mg/mL. Mice were treated with a 150 mg/kg dose of PD0332991, or vehicle, 1 hour prior to ischemia reperfusion surgery by oral gavage. 8 week old male mice were anesthetized with pentobarbital sodium (60 mg/kg body weight, intraperitoneally) prior to surgery. Body temperatures were controlled at 36.5° C.-37.5° C. throughout the procedure. Bilateral flank incisions into the peritoneum allowed access to both kidneys. Kidneys were exposed and ischemia was induced by simultaneously clamping the renal pedicle of both kidneys with nontraumatic microaneurysm clamps (Roboz, Rockville, Md.). Clamped kidneys were placed back into the peritoneal cavity for 28 minutes, and clamps were then removed resulting in reperfusion injury. The flank incisions were closed with wound clips and the mice were allowed to recover in their home cages. […] Serum creatinine was measured by the Beckman Creatinine Analyzer 2, which utilizes a 10 mM picric acid solution mixed with a buffer containing 10 mM sodium borate, 240 mM sodium hydroxide, and 10 mM sodium dodecyl sulfate (SDS). Serum creatinine is measured against a creatinine standard and recorded as milligrams per deciliter.

CC(=O)c1c(C)c2cnc(Nc3ccc(N4CCNCC4)cn3)nc2n(C2CCCC2)c1=O [PD0332991, 6-acetyl-8-cyclopentyl-5-methyl-2-(5-piperazin-1-yl-pyridin-2-ylamino)-8H-pyrido-[2,3-d]-pyrimidin-7-one]
G1 cell cycle arrest [1]: induces a G1 arrest; also recorded: “clean” G1-arrest without evidence of cytotoxicity | cell cycle fractions (G0/G1, G2/M, S-phase) [1]: dose dependent increase in the G0/G1 fraction of the cell cycle was observed with a consummate decrease in both G2/M and S-phase fractions | cell proliferation (relative light units) compared to DMSO control [2]: clear dose dependent inhibition of cell proliferation; also recorded: blocks proliferation | BrdU(+) renal epithelial cells 24 hours after injury, versus vehicle (renal epithelial cells; 150 mg/kg oral gavage one time, 1 hour before IRI (FIG. 3A schedule)): significantly less BrdU(+) cells; also recorded: prevents epithelial cells from entering S-phase | BrdU incorporation in renal epithelial cells 48 hours after injury, versus vehicle (renal epithelial cells; 150 mg/kg oral gavage two doses, once pre-IRI and once post-IRI (FIG. 3B schedule)): less BrdU incorporation; also recorded: prevents epithelial cells from entering S-phase | average serum creatinine 24 hours after surgery [3]: 1.74 mg/dL
